Data: US6482603B1, “Method of detecting drug-receptor and protein-protein interactions” (Yale University, priority 1998, dated 2002)

How the values were obtained:
[1] = test system: control cells which express the Sec-1 G protein gamma fusion alone and cells which express syntaxin alone; experiment: growth inhibition assay (halo assay), control cells; assay type: cell-based, Saccharomyces cerevisiae; conditions: upon pheromone addition, filter disks with 5 or 15 μg, 2 days at 30° C.
Description: (§1) Standard methods for the growth, maintenance, and transformation of yeast and bacteria, and for the manipulation of DNA, were used throughout (Ausubel et al. 1987, Current Protocols in Molecular Biology. Wiley-Interscience, New York). The Escherichia coli strain DH5α was used for the maintenance of plasmids. Yeast cells were grown in synthetic medium supplemented with amino acids, adenine and 2% glucose (SCD) or 2% galactose plus 0.2% sucrose (SCG); tryptophan and/or uracil were omitted to maintain selection for plasmids. The Saccharomyces cerevisiae strain used in this study was MHY6 (from Jeremy Thomer) (MATa ura3-52 lys2-801^am ade2-101^oc trp1-Δ63 his3-Δ200 leu2-Δ1 ste18Δ::LEU2) (derived from Sikorski et al. (1989) Genetics 122(1):19-27).
(§2) To evaluate to the interactions of the Sec-1 G protein gamma subunit fusion and syntaxin, a growth inhibition assay (halo assay) was carried out by diluting 50 μL from an overnight culture grown at 30° C. in selective media with 2 mL sterile water, followed by the addition of an equal volume of 1% (w/v) dissolved agar (55° C.) and poured onto a culture dish of SCD-Trp-Ura or SCG-Trp-Ura medium. Sterile filter discs were spotted with 5 μg or 15 μg of synthetic α-factor pheromone and placed onto the nascent lawn to induce growth arrest. The resulting zone of growth-arrested cells was documented after 2 days at 30° C. […]

[2] = test system: yeast expressing the Sec-1 G protein gamma subunit fusion and syntaxin; experiment: growth inhibition assay (halo assay); assay type: cell-based, Saccharomyces cerevisiae; conditions: filter disks containing 5 or 15 μg of α-factor; strain MHY6; documented after 2 days at 30° C.
Description: as §1, §2

## α-factor
[1]
  pheromone induced growth arrest: growth arrest
[2]
  α-factor induced growth arrest (zone of inhibition around filter paper disks): no zone of inhibition
